According to patent US8431559B2, “Treatment of hot flashes” (priority 2008, dated 2013):
Read-outs that look alike come from different tables or passages of the source.

How the values were obtained:
[1] = test system: rats, mice, rabbits and dogs; test: Acute and multidose (28 day) toxicity studies, intranasal and intravenous; assay type: in vivo; settings: single intranasal up to 100 μg/rat, 400 μg/rabbit, 600 μg/dog; repeated up to 50 μg/rat/day, 300 μg/dog/day; intravenous single and repeated up to 2.5 mg/kg
[2] = Ames reverse mutation assay; assay type: cell-based
[3] = test system: bone marrow; test: in vivo bone marrow micronucleus test
[4] = test system: pregnant rabbits; test: Reproductive toxicity studies in pregnant rabbits; assay type: in vivo; settings: intravenous doses up to 2.5 mg/kg/day during the period of organogenesis
[5] = Preclinical pharmacokinetic studies, intranasal doses; assay type: in vivo; settings: repeated or single escalating intranasal doses up to 100 μg/rat, 400 μg/rabbit, 600 μg/dog
[6] = Preclinical pharmacokinetic studies, intravenous doses; assay type: in vivo, rats, rabbits, or dogs; settings: single repeated intravenous doses up to 2.5 mg/kg
[7] = test system: women of reproductive age; test: Intranasal spray 500 nanograms in 14 women of reproductive age, autonomic and physiologic effects vs vehicle; assay type: in vivo, human; settings: 500 nanograms intranasal, compared to the vehicle
[8] = test system: women of reproductive age; test: Intranasal spray 1600 nanograms in women of reproductive age, core body temperature and sympathoadrenergic tone; assay type: in vivo, human; settings: 1600 nanograms intranasal
Procedure: In another test also in women of reproductive age, intranasal delivery of a nasal spray containing 1600 nanograms of 16α,17α-epoxy-10β-hydroxyestr-4-en-3-one (one administration per nostril by a Valois intranasal spray pump of 50 μL of an aqueous solution of 16 μg/mL 16α,17α-epoxy-10β-hydroxyestr-4-en-3-one with 2% propylene glycol and 2% ethanol) caused a rapid (0.5 to 4 minute latency) decrease in core body temperature of 1±0.23° C. that persisted for 9±2.5 minutes.

[9] = test system: hot flashes; settings: crossover analysis; cited from earlier work
[10] = test system: hot flashes; settings: vs. 29% for placebo; cited from earlier work
[11] = test system: hot flashes; settings: placebo response rate 37.8%, cited from earlier work
[12] = test system: hot flashes; settings: cited from earlier work
[13] = test system: hot flashes; settings: oral and transdermal clonidine; cited from earlier work
[14] = test system: hot flashes; settings: 27% for placebo, cited from earlier work

Compound: C[C@]12CC[C@H]3[C@@H](CCC4=CC(=O)CC[C@@]43O)[C@@H]1C[C@H]1O[C@H]12 [16α,17α-epoxy-10β-hydroxyestr-4-en-3-one, 16α,17α-Epoxy-10β-hydroxyestr-4-en-3-one]
- tolerability (deaths, adverse clinical signs, effects on laboratory or pathology parameters) [1]: well tolerated in all species tested
- mutagenic or clastogenic potential [2]: no evidence of mutagenic or clastogenic potential
- mutagenic or clastogenic potential [3]: no evidence of mutagenic or clastogenic potential
- effects on maternal or litter parameters [4]: no adverse effects on maternal or litter parameters
- systemic exposure [5]: very low systemic exposure
- plasma concentrations [6]: generally were dose-proportional and decreased rapidly
- cardiac frequency [7]: not statistically significant increase
- core body temperature [7]: statistically significant decreases
- electrodermal activity (skin conductance) [7]: statistically significant decreases
- electromyographic activity [7]: statistically significant decreases
- respiratory frequency [7]: statistically significant decreases
- vagal tone [7]: statistically significant increases
- decrease in core body temperature [8]: 1±0.23 °C
- persistence of decrease in core body temperature [8]: 9 ± 2.5 min
- time to reduced tone of the sympathoadrenergic system (physiologic sinus arrhythmia) [8]: ≤ 5 minutes

Compound: CNCCC(Oc1ccc(C(F)(F)F)cc1)c1ccccc1 (stereo not drawn) [Fluoxetine]
- reduction in hot flash frequency over the placebo condition [9]: ~20%

Compound: NCC1(CC(=O)O)CCCCC1 [Gabapentin]
- reduction of hot flash frequency [10]: 45%

Compound: Fc1ccc([C@@H]2CCNC[C@H]2COc2ccc3c(c2)OCO3)cc1 [Paroxetine]
- decrease of hot flash composite scores ([11]; 12.5 mg/day): 62%
- decrease of hot flash composite scores ([11]; 25.0 mg/day): 65%

Compound: Clc1cccc(Cl)c1N=C1NCCN1 [clonidine, Clonidine]
- reduction of hot flash frequency ([12]; oral clonidine): 46%
- reduction of hot flash frequency ([12]; transdermal clonidine): 80%
- reductions in hot flash frequency compared with placebo [13]: smaller, but significant reductions

Compound: COc1ccc(C(CN(C)C)C2(O)CCCCC2)cc1 (stereo not drawn) [venlafaxine, Venlafaxine]
- reduction of hot flash scores from baseline ([14]; 37.5 mg/day): 37%
- reduction of hot flash scores from baseline ([14]; 75 and 150 mg/day): 60%
